Laboratory results published in patent publication US12703693B2, “Crystalline forms of N-{3-[(1S)-1-{[6-(3,4-dimethoxyphenyl)pyrazin-2-yl]amino}ethyl]phenyl}-5-methylpyridine-3-carboxamide and related products and methods” (GB002, INC., priority 2021, dated 2026).
In brackets after ≈: the same amount, converted by molar mass. One block for each compound: values may come before it.

Key:
[1] = Solvent solubility of amorphous Compound 1 (solvent aliquot addition); assay type: physicochemical; conditions: thermodynamic from solid
Protocol: Test solvent/solvent system (50 μL) was added to the vial and the mixture assessed for dissolution. If no dissolution was apparent, the mixture was heated to ca. 40° C. and reassessed; if dissolution was still incomplete, the cycle was repeated and an additional 50 μL of solvent added. After 300 μL of solvent had been added, 100 μL aliquots were added. This procedure was continued until complete dissolution was observed or until 1 mL of solvent had been added.

[2] = Fragility and relaxation time (Tg vs heating rate by DSC); assay type: physicochemical; conditions: 25° C.; calculated from fragility parameters (γ=0.9, τ0=10^−14 s)
Protocol: Fragility and relaxation time parameters were determined by measuring Tg as a function of heating rate. Four heating rates were used: 1, 5, 10 and 20° C./min. DSC measurements were made by: • (1) heating at 10° C./min to 100° C.; • (2) isothermal hold for 5 min; • (3) cooling at 10° C./min to −20° C.; • (4) isothermal hold for 5 min; and • (5) heating at 10° C./min to 130° C.
The slope was used to calculate the activation enthalpy (ΔH*), from which the fragility parameters m, D and T0 were calculated, according to the following equations:
Using the fragility parameters, the initial structural relaxation time was calculated according to the following formula, (using γ=0.9 and τ0=10^−14 s) and determined to be 3 months at 25° C.

[3] = Solubility in ethyl acetate and ethyl acetate+2% water (Crystal16 parallel crystallizer); assay type: physicochemical; conditions: presence of water (2%)
Protocol: The solubility of crystalline Forms A and B of Compound 1 in ethyl acetate was determined using a Crystal16® parallel crystallizer. Two heating rates were used, 1° C./min and 0.5° C./min. The suspensions were heated to 78° C. and cooled to 10° C. at 0.2° C./min and maintained for 2 h at 10° C. […] The suspensions were heated to 78° C. at 1° C./min, cooled to 10° C. at 0.2° C./min and maintained for 2 h at 10° C. FIG. 15 compares the resulting solubility curve with the pure ethyl acetate.

[4] = Sample stress, 40° C. and 75% relative humidity, XRPD; assay type: physicochemical; conditions: open vial, 6 days
Protocol: Two samples, one containing pure crystalline Form A of Compound 1 and a second containing a mixture of crystalline Forms A and B of Compound 1 were placed in an open vial at 40° C. and 75% relative humidity for 6 days and then analyzed by XRPD. The results are presented in Table 11; no changes by XRPD were observed.

[5] = Gravimetric Vapor Sorption (GVS); assay type: physicochemical; conditions: 25° C.
Protocol: Approximately 10-20 mg of crystalline Form A of Compound 1 was placed into a mesh vapor sorption balance pan and loaded into an IGASorp Moisture Sorption Analyzer balance by Hiden Analytical. The sample was subjected to a ramping profile from 40-90% relative humidity (RH) at 10% increments, maintaining the sample at each step until a stable weight had been achieved (98% step completion, minimum step length 30 minutes, maximum step length 60 minutes) at 25° C. After completion of the sorption cycle, the sample was dried using the same procedure to 0% RH, and finally taken back to the starting point of 40% RH. Two cycles were performed. The weight change during the sorption/desorption cycles were plotted, allowing for the hygroscopic nature of the sample to be determined.

[6] = Physical stability, 1 week storage (HPLC purity, XRPD); assay type: physicochemical
Protocol: Two vials each were then stored for 1 week under various conditions of temperature and relative humidity.
XRPD analysis was performed to detect changes in crystallinity.

[7] = Particle size distribution (PSD) of micronized / spray dried material; assay type: physicochemical; conditions: Example 9 wet milling, 5% w/w in water, 45 cycles/P = 50 bar
Source text: Crystalline Compound 1 Form A was fed into a grinding chamber tangentially by vacuum created by the venturi system using pressurized nitrogen (venturi pressure, Pvent, above grind pressure, Pgrind). Compressed nitrogen was also used for the jet nozzles in the walls of the chamber. The feed flow rate was set and controlled automatically (by a gravimetric feeder) or manually. Once inside the milling chamber particles were accelerated by a series of perimeter jets, in a spiral movement. The compressed fluid issuing from the nozzles expands from Pgrind and imparts very high rotational speeds in the chamber. The micronizing effect occurs when the slower incoming particles and the faster particles in the spiral path collide. While centrifugal force retains the larger particles at the periphery of the milling chamber, the smaller particles exit with the exhaust gas from the center of the chamber. Five 20 g trials were performed in a 1.5″ jet mill, under varying feed rates (Ffeed,JM,) and pressures; the optimal conditions were used for a sixth larger scale 50 g trial.
Aqueous suspensions of crystalline Compound 1 Form A in water (5% w/w or 10% w/w) were processed via microfluidization with a HPH18 (M-110EH-30 Microfluidics Pilot) wet milling apparatus equipped with an auxiliary processing module (200 μm) and an interaction chamber (Z-shape, 100 μm). The unit was initiated at a given pressure for the first five cycles to perform a pre-milling of the suspension, using only the auxiliary processing module (200 μm). The interaction chamber (100 μm) was then introduced and the suspension processed at a defined pressure. The temperature was controlled, using a reactor jacket, and recorded. To address clogging of the micronization chambers (observed after ~25 cycles), the pressure was increased from 25 to 60 bar.
The material isolated from the first run 1A, was dived into three (1BI, 1BII and 1BIII); runs 2A and 3A were spray dried to produce samples 2B and 3B, respectively. […] Runs 2B and 3B were additionally characterized for specific surface area (SSA). See Table 27 (runs 1BI, 1BII and 1BIII) and Table 28 (runs 2B and 3B) for conditions and product characterization. […]
Two 250 g batches of crystalline Compound 1 Form A were each suspended in water (5 L) and wet polished in a wet milling HPH18 (M-110EH-30 Microfluidics Pilot) apparatus, equipped with an auxiliary processing module (200 μm) and an interaction chamber (Z-shape, 100 μm). The unit was initiated at 50 bar for the first five cycles to perform a pre-milling of the suspension, using only the auxiliary processing module (200 μm). The interaction chamber (100 μm) was then introduced and the suspension processed at 50 bar (increased to 60 or 70 bar if the system clogged). The temperature was maintained at 18-28° C. using a reactor jacket. The Reactor agitation speed was 280 RPM (batch 1) and 390 RPM (batch 2). The first batch was micronized for 25 cycles and particle size distribution analyzed after 5, 15 and 20 cycles; the second batch was micronized for […] and particle size distribution analyzed after 15, 20, 25 and 35 cycles.
Both batches were then spray dried (separately) using a Büchi spray dryer, using an open loop system. The unit was equipped with a two-fluid nozzle: cap and orifice diameters of 1.5 and 0.7 mm, respectively operated with nitrogen. The aspirator, blowing nitrogen, was set at 100% capacity (~40 kg/h). The suspension feed flow was set to 8 ml/min, high and the drying outlet temperature to 75±1° C. […] Total yield (both batches combined) was 267 g (53%).
Two 250 g batches (250 g and 238 g; 488 g total) of crystalline Compound 1 Form A coated with ~2% L-leucine were each suspended in water (5 L) and wet polished in a wet milling HPH18 (M-110EH-30 Microfluidics Pilot) apparatus, under the same process as described in the previous example. The first batch was micronized for 25 cycles and the second for 30 cycles. […]

physchem = conditions: 22 °C, aqueous with cosolvent or surfactant or cyclodextrin, thermodynamic from solid
Protocol: (§1) Phosphate Buffer contained NaH2PO4·H2O (0.345 g), sodium hydroxide aqueous solution (0.2M, 10.001 mL), sodium chloride (0.576 g) and water (qs ad 100.0 mL); • Ethanol/Water (30/70) contained Ethanol (30.0 g) and Water (70.0 g); • Ethanol/Water (40/60) contained Ethanol (40.0 g) and Water (60.0 g); • Ethanol/Water (50/50) contained Ethanol (50.0 g) and Water (50.0 g); and • Ethanol/Water (45/55) contained Ethanol (4.50 g) and Water (5.51 g).

[8] = Solubility in 25 mM phosphate buffer pH 7.4; conditions: phosphate buffer, pH 7.4
Protocol: as §1

[9] = Thermodynamic solubility in pH 3, 4.5, 6.8 buffers and deionized water; conditions: for pH (24 h): ~24 h agitation at ambient temperature

- solubility ([1]; 2-propanol, organic solvent or mixture): ≥ 200 mg/mL
- solubility ([1]; EtOAc/tBME (75:25% v/v), organic solvent or mixture): ≥ 200 mg/mL
- solubility ([1]; acetone, organic solvent or mixture): ≥ 200 mg/mL
- solubility ([1]; acetonitrile, organic solvent or mixture): ≥ 200 mg/mL
- solubility ([1]; chloroform, organic solvent or mixture): ≥ 200 mg/mL
- solubility ([1]; ethanol, organic solvent or mixture): ≥ 200 mg/mL
- solubility ([1]; ethanol/water (95:5% v/v), organic solvent or mixture): ≥ 200 mg/mL
- solubility ([1]; ethyl acetate, organic solvent or mixture): ≥ 200 mg/mL
- solubility ([1]; heptane, organic solvent or mixture): < 10 mg/mL
- solubility ([1]; methanol, organic solvent or mixture): ≥ 200 mg/mL
- solubility ([1]; methyl ethyl ketone, organic solvent or mixture): ≥ 200 mg/mL
- solubility ([1]; organic solvent or mixture, EtOAc/tBME (25:75% v/v), sample heated to 40° C.): ~12.5 mg/mL (≈ 26.6 mM)
- solubility ([1]; organic solvent or mixture, EtOAc/tBME (50:50% v/v), sample heated to 40° C.): ~100 mg/mL (≈ 213 mM)
- solubility ([1]; tert-butyl methyl ether, organic solvent or mixture): < 10 mg/mL
- solubility ([1]; tetrahydrofuran, organic solvent or mixture): ≥ 200 mg/mL
- solubility ([1]; toluene, organic solvent or mixture): < 10 mg/mL
- solubility ([1]; water): < 10 mg/mL
- initial structural relaxation time [2]: 3 months
SMILES: COc1ccc(-c2cncc(N[C@@H](C)c3cccc(NC(=O)c4cncc(C)c4)c3)n2)cc1OC [Amorphous Compound 1, N-{3-[(1S)-1-{[6-(3,4-dimethoxyphenyl)pyrazin-2-yl]amino}ethyl]phenyl}-5-methylpyridine-3-carboxamide]

- solubility in ethyl acetate+2% water compared to pure ethyl acetate [3]: significantly more soluble
- XRPD observation after stress conditions [4]: No change - all Form A
- hygroscopic nature (GVS) ([5]; two sorption/desorption cycles): slightly hygroscopic
- GVS mass increase ([5]; up to 90% relative humidity): ~0.7%
- Purity (HPLC) ([6]; 1 week, 25° C./60% relative humidity (open vial)): ~99.1%
- Purity (HPLC) ([6]; 1 week, 40° C./75% relative humidity (open vial)): ~99.1%
- Purity (HPLC) ([6]; 1 week, 80° C. (closed vial)): ~99.0%
- Purity (HPLC) ([6]; 1 week, Ambient light/temperature (closed vial)): ~98.9%
- Purity (HPLC) ([6]; Before storage): ~99.3%
- crystalline form by XRPD after storage ([6]; one week, ambient, 25° C., 40° C., 80° C., relative humidity ambient, 60%, 75%): maintained
- Dv10 [7]: 0.1 μm
- Dv50 [7]: 1.0 μm
- Dv90 [7]: 3.5 μm
- solubility (physchem): 2 to 350 mg/mL (≈ 4.26 to 745 mM)
- solubility in phosphate buffer [8]: moderate solubility
- pH (Initial) ([9]; Water, after addition): 6.78
- pH (24 h) ([9]; Water): 6.73
- Compound 1 concentration in filtered mother liquors (HPLC) ([9]; all buffers (pH 3, 4.5, 6.8) and water, ambient temperature, ~24 h): < 0.05 mg/mL
- pH (Initial) ([9]; pH 3 buffer, after buffer addition): 2.96
- pH (24 h) ([9]; pH 3 buffer): 2.94
- pH (Initial) ([9]; pH 4.5 buffer, after buffer addition): 4.55
- pH (24 h) ([9]; pH 4.5 buffer): 4.55
- pH (Initial) ([9]; pH 6.8 buffer, after buffer addition): 6.83
- pH (24 h) ([9]; pH 6.8 buffer): 6.79
SMILES: COc1ccc(-c2cncc(N[C@@H](C)c3cccc(NC(=O)c4cncc(C)c4)c3)n2)cc1OC [Form A, N-{3-[(1S)-1-{[6-(3,4-dimethoxyphenyl)pyrazin-2-yl]amino}ethyl]phenyl}-5-methylpyridine-3-carboxamide]
